In PMC6855212, “Antibacterial activity of synthetic 1,3‐bis(aryloxy)propan‐2‐amines against Gram‐positive bacteria” (MicrobiologyOpen, 2019):
Values after ≈ are worked out from the molar mass of the structure shown. Values joined by “and” are separate entries in the source; they are usually repeats but may differ in a detail not shown here. Identical values can stand only once. Like-named read-outs stand apart in the source and are kept apart here.

Assays:
[1] = Cytotoxicity, MTT reduction assay; type: cell-based; conditions: African green monkey, 48 hr
Procedure: The cytotoxicity of active compounds to mammalian cells was assessed using the MTT reduction assay (Mosmann, 1983). Vero and BSC‐40 cells were seeded in 96‐well plates (8 × 10^4 cells per well) and incubated at 37°C and 5% CO2 atmosphere. After 24 hr of incubation, 200 μL of fresh medium containing a serial dilution of compounds (10–1.25 μg/ml) were added to the plates. After 48 hr of incubation in the same conditions, 100 μL of MTT solution in MEM or DMEM (5 mg/ml) was added to each well and incubated for 3 hr at 37°C and 5% CO2 atmosphere. The medium was removed and 100 μL of DMSO was used to solubilize formazan crystals. Absorbance at 570 nm of each well was read using a spectrophotometer (VersaMax, Molecular Devices).

[2] = system: Gram‐positive bacteria (E. faecalis, S. aureus and S. pyogenes); assay: MIC, broth microdilution, Gram‐positive bacteria taken together; type: cell-based; conditions: Staphylococcus aureus; over different bacterial strains, including MRSA where stated; read-out: MIC against Gram‐positive bacteria, summary
Procedure: (§1) The antibacterial activity of the compounds was evaluated using the broth microdilution method in 96‐well microplates according to the Clinical and Laboratory Standards Institute protocol (CLSI, 2017). First, synthetic compounds were diluted in Mueller Hinton broth (MHB; Oxoid, Thermo Scientific, UK) to concentrations ranging from 20 to 2.5 μg/ml. The same volume of a bacterial suspension containing 10^5 CFU/ml was added to each of the previous solutions, resulting in final compound concentrations from 10 to 1.25 μg/ml. […] All conditions were tested in triplicate and the results shown are representative of three independent assays.

MRSA Strain 5749 [3] = assay: MBC, plating of wells without growth; type: cell-based; conditions: Staphylococcus aureus
Procedure: (§2) After incubation at 35°C for 24 hr, the colonies were counted and the percentage of inhibition was calculated. MBC is defined as the lowest compound's concentration that inhibits at least 99.9% of the bacterial cell count compared to nontreated viability control (Clinical and Laboratory Standards Institute, 1999).

MRSA Strain 5912 [4] = assay: MBC, plating of wells without growth; type: cell-based; conditions: Staphylococcus aureus
Procedure: as §2

MRSA Strain 6613 [5] = assay: MBC, plating of wells without growth; type: cell-based; conditions: Staphylococcus aureus
Procedure: as §2

MRSA Strain 6100 [6] = assay: MBC, plating of wells without growth; type: cell-based; conditions: Staphylococcus aureus
Procedure: as §2

S. aureus ATCC 29212 = assay: MBC, plating of wells without growth; type: cell-based; conditions: Staphylococcus aureus, ATCC29212; at least 99.9% inhibition of cell count
Procedure: as §2

MRSA Strain 6154 [7] = assay: MBC, plating of wells without growth; type: cell-based; conditions: Staphylococcus aureus
Procedure: as §2

S. pyogenes ATCC 19615 = assay: MBC, plating of wells without growth; type: cell-based; conditions: Streptococcus pyogenes, ATCC19615; at least 99.9% inhibition of cell count
Procedure: as §2

MRSA strains = assay: MIC, broth microdilution, MRSA strains taken together; type: cell-based; conditions: Staphylococcus aureus; over the six MRSA strains (CPD18: four out of six); read-out: MIC against MRSA strains
Procedure: as §1

MRSA Strain 5749 [8] = assay: MIC, broth microdilution; type: cell-based; conditions: Staphylococcus aureus, read-out: MIC MRSA Strain 5749
Procedure: as §1

MRSA Strain 5912 [9] = assay: MIC, broth microdilution; type: cell-based; conditions: Staphylococcus aureus, read-out: MIC MRSA Strain 5912
Procedure: as §1

[10] = system: Staphylococcus aureus ATCC 29212; assay: MIC, broth microdilution; type: cell-based; conditions: for MIC: Staphylococcus aureus, ATCC29212
Procedure: as §1

[11] = system: Streptococcus pyogenes ATCC 19615; assay: MIC, broth microdilution; type: cell-based; conditions: for MIC: Streptococcus pyogenes, ATCC19615
Procedure: as §1

MRSA Strain 6613 [12] = assay: MIC, broth microdilution; type: cell-based; conditions: Staphylococcus aureus, read-out: MIC MRSA Strain 6613
Procedure: as §1

MRSA Strain 6100 [13] = assay: MIC, broth microdilution; type: cell-based; conditions: Staphylococcus aureus, read-out: MIC MRSA Strain 6100
Procedure: as §1

[14] = system: Enterococcus faecalis ATCC 29213; assay: MIC, broth microdilution; type: cell-based
Procedure: as §1

MRSA Strain 6154 [15] = assay: MIC, broth microdilution; type: cell-based; conditions: Staphylococcus aureus, read-out: MIC MRSA Strain 6154
Procedure: as §1

E. faecalis = system: E. faecalis; parameters: method as in CLSI, 2017; conditions: antimicrobials in clinical use; ref CLSI, 2017; cited from earlier work
MRSA = system: MRSA; parameters: method as in Baltch, Ritz, Bopp, Michelsen, & Smith, 2007; conditions: antimicrobials used in the clinic; ref Baltch, Ritz, Bopp, Michelsen, & Smith, 2007; cited from earlier work
S. aureus = system: S. aureus; parameters: method as in CLSI, 2017; conditions: antimicrobials in clinical use; ref CLSI, 2017; cited from earlier work
MRSA ATCC 43300 = assay: MIC, broth microdilution; type: cell-based; conditions: Staphylococcus aureus, read-out: MIC MRSA ATCC 43300
Procedure: as §1

[16] = 24 hr, 35°C, read-out: MIC Staphylococcus aureus ATCC 29212
[17] = 24 hr, 35°C, read-out: MIC Streptococcus pyogenes ATCC 19615

SMILES: NC(COc1ccc2ccccc2c1)COc1ccc2ccccc2c1 [CPD21]
- CC50 at 48 h ([1]; BSC-40 cells, BSC‐40, MTT, read-out: CC50): 5.06 ± 1.13 µg/mL
- CC50 at 48 h ([1]; BSC-40 cells, BSC‐40, MTT, read-out: CC50 ± SD): 13.3 ± 2.97 µM
- CC50 at 48 h ([1]; Vero cells, MTT, read-out: CC50 ± SD): 11.3 ± 2.58 µM
- MIC [2]: 10 µg/mL and 26.3 µM
- MBC (MRSA Strain 5749 [3]): 26.3 µM (≈ 9.04 µg/mL)
- MBC (MRSA Strain 5912 [4]): 13.2 µM (≈ 4.52 µg/mL)
- MBC (MRSA Strain 6613 [5]): 26.3 µM (≈ 9.04 µg/mL)
- MBC (MRSA Strain 6100 [6]): 26.3 µM (≈ 9.04 µg/mL)
- MBC (S. aureus ATCC 29212): 26.3 µM (≈ 9.04 µg/mL)
- MBC (MRSA Strain 6154 [7]): 26.3 µM (≈ 9.04 µg/mL)
- MBC (S. pyogenes ATCC 19615): 26.3 µM (≈ 9.04 µg/mL)
- MIC (MRSA strains): 5 µg/mL to 10 µg/mL and 13.2 µM to 26.3 µM
- MIC (MRSA Strain 5749 [8]; clinical strain): 26.3 µM (≈ 9.04 µg/mL)
- MIC (MRSA Strain 5912 [9]; clinical strain): 13.2 µM (≈ 4.52 µg/mL)
- MIC [10, 16]: 26.3 µM
- MIC ([10]; read-out: MIC against S. aureus): 10 µg/mL
- Antibacterial activity in initial screening, S. aureus ([10]; concentration of 10 μg/ml): showed activity
- MIC [11, 17]: 26.3 µM
- MIC ([11]; read-out: MIC against S. pyogenes): 10 µg/mL
- Antibacterial activity in initial screening, S. pyogenes ([11]; concentration of 10 μg/ml): showed activity
- MIC (MRSA Strain 6613 [12]; clinical strain): 26.3 µM (≈ 9.04 µg/mL)
- MIC (MRSA Strain 6100 [13]; clinical strain, — = no activity up to 10 μg/ml): 26.3 µM (≈ 9.04 µg/mL)
- Antibacterial activity in initial screening, E. faecalis ([14]; concentration of 10 μg/ml): not observed
- MIC (MRSA Strain 6154 [15]; clinical strain): 26.3 µM (≈ 9.04 µg/mL)

SMILES: OC(COc1ccc(Cl)c(Cl)c1)COc1ccc(Cl)c(Cl)c1 [CPD29, 1,3‐Bis(3,4‐dichlorophenoxy)propan‐2‐ol]
- melting point: 103.4 to 105.7 °C

SMILES: CS(=O)(=O)OC(COc1ccc(Cl)c(Cl)c1)COc1ccc(Cl)c(Cl)c1 [CPD30, 1,3‐Bis(3,4‐dichlorophenoxy)propan‐2‐yl methanesulfonate]
- melting point: 83.7 to 84.4 °C

SMILES: [N-]=[N+]=NC(COc1ccc(Cl)c(Cl)c1)COc1ccc(Cl)c(Cl)c1 [CPD31, 1,3‐Bis(3,4‐dichlorophenoxy)propan‐2‐yl azide]
- melting point: 95.6 to 96.3 °C

SMILES: Clc1ccc(OCC(COc2ccc(Cl)cc2)N2CCOCC2)cc1 [CPD34, 4‐(1,3‐Bis(4‐chlorophenoxy)propan‐2‐yl)morpholine]
- melting point: 62.6 to 64.8 °C

SMILES: Cc1ccc(S(=O)(=O)OC(COc2ccc(Cl)cc2)COc2ccc(Cl)cc2)cc1 [CPD39, 1,3‐bis(4‐chlorophenoxy)propan‐2‐yl 4‐methylbenzenesulfonate]
- melting point: 145.3 to 147.2 °C

SMILES: CC1(C)S[C@@H]2[C@H](NC(=O)Cc3ccccc3)C(=O)N2[C@H]1C(=O)O [Penicillin G, reference compound]
- MIC [10, 16]: 0.06 µM
- MIC [11, 17]: 0.24 µM
- MIC ([14]; Enterococcus faecalis, ATCC29213, 24 hr, 35°C, — = no activity up to 10 μg/ml, read-out: MIC Enterococcus faecalis ATCC 29213): 5.98 µM (≈ 2 µg/mL)

SMILES: CN[C@H](CC(C)C)C(=O)N[C@H]1C(=O)N[C@@H](CC(N)=O)C(=O)N[C@H]2C(=O)N[C@H]3C(=O)N[C@H](C(=O)N[C@H](C(=O)O)c4cc(O)cc(O)c4-c4cc3ccc4O)[C@H](O)c3ccc(c(Cl)c3)Oc3cc2cc(c3O[C@@H]2O[C@H](CO)[C@@H](O)[C@H](O)[C@H]2O[C@H]2C[C@](C)(N)[C@H](O)[C@H](C)O2)Oc2ccc(cc2Cl)[C@H]1O [Vancomycin, reference compound]
- MIC E. faecalis (E. faecalis): 1 to 4 µg/mL
- MIC MRSA (MRSA): 2 µg/mL (≈ 1.38 µM)
- MIC S. aureus (S. aureus): 0.5 to 2 µg/mL
- MIC (MRSA Strain 5749 [8]): 1.38 µM (≈ 2 µg/mL)
- MIC (MRSA Strain 5912 [9]): 1.38 µM (≈ 2 µg/mL)
- MIC (MRSA ATCC 43300): 1.38 µM (≈ 2 µg/mL)
- MIC (MRSA Strain 6613 [12]): 1.38 µM (≈ 2 µg/mL)
- MIC (MRSA Strain 6100 [13]): 1.38 µM (≈ 2 µg/mL)
- MIC (MRSA Strain 6154 [15]): 1.38 µM (≈ 2 µg/mL)

SMILES: NCC[C@H](O)C(=O)N[C@@H]1C[C@H](N)[C@@H](O[C@H]2O[C@H](CN)[C@@H](O)[C@H](O)[C@H]2O)[C@H](O)[C@H]1O[C@H]1O[C@H](CO)[C@@H](O)[C@H](N)[C@H]1O [amikacin]
- MIC E. faecalis (E. faecalis): 64 to 256 µg/mL
- MIC S. aureus (S. aureus): 1 to 4 µg/mL

SMILES: CC1(C)S[C@@H]2[C@H](NC(=O)C(C(=O)O)c3ccccc3)C(=O)N2[C@H]1C(=O)O (stereo partly shown) [carbenicillin]
- MIC E. faecalis (E. faecalis): 16 to 64 µg/mL
- MIC S. aureus (S. aureus): 2 to 8 µg/mL

SMILES: CC(C)(O/N=C(\C(=O)N[C@@H]1C(=O)N2C(C(=O)[O-])=C(C[n+]3ccccc3)CS[C@H]12)c1csc(N)n1)C(=O)O [ceftazidime]
- MIC S. aureus (S. aureus): 4 to 16 µg/mL

SMILES: O=C(N[C@H](CO)[C@H](O)c1ccc([N+](=O)[O-])cc1)C(Cl)Cl [chloramphenicol]
- MIC E. faecalis (E. faecalis): 4 to 16 µg/mL
- MIC S. aureus (S. aureus): 2 to 16 µg/mL

SMILES: CCCCCCCCCC(=O)N[C@@H](Cc1c[nH]c2ccccc12)C(=O)N[C@H](CC(N)=O)C(=O)N[C@@H](CC(=O)O)C(=O)N[C@@H]1C(=O)NCC(=O)N[C@@H](CCCN)C(=O)N[C@@H](CC(=O)O)C(=O)N[C@H](C)C(=O)N[C@@H](CC(=O)O)C(=O)NCC(=O)N[C@H](CO)C(=O)N[C@@H]([C@H](C)CC(=O)O)C(=O)N[C@@H](CC(=O)c2ccccc2N)C(=O)O[C@@H]1C [daptomycin]
- MIC MRSA (MRSA): 0.5 µg/mL (≈ 0.309 µM)

SMILES: CNC(C)C1CCC(N)C(OC2C(N)CC(N)C(OC3OCC(C)(O)C(NC)C3O)C2O)O1 (stereo not shown) [gentamicin]
- MIC MRSA (MRSA): 128 µg/mL (≈ 268 µM)

SMILES: NC[C@H]1O[C@H](O[C@H]2[C@H](O)[C@@H](O[C@H]3O[C@H](CO)[C@@H](O)[C@H](N)[C@H]3O)[C@H](N)C[C@@H]2N)[C@H](O)[C@@H](O)[C@@H]1O [kanamycin]
- MIC E. faecalis (E. faecalis): 16 to 64 µg/mL
- MIC S. aureus (S. aureus): 1 to 4 µg/mL

SMILES: CC(=O)NC[C@H]1CN(c2ccc(N3CCOCC3)c(F)c2)C(=O)O1 [linezolid]
- MIC E. faecalis (E. faecalis): 1 to 4 µg/mL
- MIC S. aureus (S. aureus): 1 to 4 µg/mL

SMILES: COc1cccc(OC)c1C(=O)N[C@@H]1C(=O)N2[C@@H]1SC(C)(C)[C@@H]2C(=O)O [methicillin]
- MIC E. faecalis (E. faecalis): > 16 µg/mL

SMILES: Cc1onc(-c2ccccc2)c1C(=O)N[C@@H]1C(=O)N2[C@@H]1SC(C)(C)[C@@H]2C(=O)O [oxacillin]
- MIC MRSA (MRSA): 16 µg/mL (≈ 39.9 µM)

SMILES: CCN1CCN(C(=O)N[C@@H](C(=O)N[C@@H]2C(=O)N3[C@@H]2SC(C)(C)[C@@H]3C(=O)O)c2ccccc2)C(=O)C1=O [piperacillin]
- MIC E. faecalis (E. faecalis): 1 to 4 µg/mL
- MIC S. aureus (S. aureus): 1 to 4 µg/mL
